The NIST ThermoML archive (doi:10.1016/j.jct.2019.02.011)
Numbers after ± are expanded uncertainties.

Assay: xn = mol fraction of the nth substance listed
Conditions: Liquid, Vibrating tube method

COC(=O)OC [dimethyl carbonate] + CCCO
mass density [kg/m3]
Conditions | 100 kPa | 5000 kPa | 10000 kPa | 15000 kPa | 20000 kPa | 25000 kPa | 30000 kPa | 35000 kPa | 40000 kPa
298.15 K, x1 = 0.0273 | – | – | – | – | – | 824.63 ± 1.4 | 827.8 ± 1.4 | 830.69 ± 1.4 | 833.7 ± 1.4
298.15 K, x1 = 0.0506 | – | – | – | – | – | 831.37 ± 1.4 | 834.55 ± 1.4 | 837.44 ± 1.4 | 840.46 ± 1.4
298.15 K, x1 = 0.0755 | – | – | – | – | – | 838.51 ± 1.4 | 841.73 ± 1.4 | 844.68 ± 1.4 | 847.74 ± 1.4
298.15 K, x1 = 0.1007 | – | – | – | – | – | 845.6 ± 1.4 | 848.88 ± 1.4 | 851.87 ± 1.4 | 854.94 ± 1.4
298.15 K, x1 = 0.1495 | – | – | – | – | – | 859.5 ± 1.4 | 862.83 ± 1.4 | 865.84 ± 1.4 | 868.95 ± 1.4
298.15 K, x1 = 0.2003 | – | – | – | – | – | 873.75 ± 1.4 | 877.1 ± 1.4 | 880.17 ± 1.4 | 883.35 ± 1.4
298.15 K, x1 = 0.2529 | – | – | – | – | – | 888.37 ± 1.4 | 891.77 ± 1.4 | 894.9 ± 1.4 | 898.11 ± 1.4
298.15 K, x1 = 0.2993 | – | – | – | – | – | 901.23 ± 1.4 | 904.69 ± 1.4 | 907.88 ± 1.4 | 911.12 ± 1.4
298.15 K, x1 = 0.3497 | – | – | – | – | – | 915.04 ± 1.4 | 918.51 ± 1.4 | 921.76 ± 1.4 | 925.01 ± 1.5
298.15 K, x1 = 0.401 | – | – | – | – | – | 928.97 ± 1.4 | 932.5 ± 1.5 | 935.75 ± 1.5 | 939.03 ± 1.5
298.15 K, x1 = 0.4509 | – | – | – | – | – | 942.42 ± 1.5 | 946 ± 1.5 | 949.32 ± 1.5 | 952.62 ± 1.5
298.15 K, x1 = 0.5002 | – | – | – | – | – | 955.58 ± 1.5 | 959.23 ± 1.5 | 962.55 ± 1.5 | 965.93 ± 1.5
298.15 K, x1 = 0.5498 | – | – | – | – | 965.01 ± 1.5 | 968.71 ± 1.5 | 972.41 ± 1.5 | 975.8 ± 1.5 | 979.21 ± 1.5
298.15 K, x1 = 0.5996 | – | – | – | – | 978.09 ± 1.5 | 981.85 ± 1.5 | 985.57 ± 1.5 | 988.96 ± 1.5 | 992.41 ± 1.5
298.15 K, x1 = 0.6499 | – | – | – | – | 991.19 ± 1.5 | 995.01 ± 1.5 | 998.78 ± 1.5 | 1002.23 ± 1.5 | 1005.7 ± 1.5
298.15 K, x1 = 0.7006 | – | – | – | – | 1004.45 ± 1.5 | 1008.28 ± 1.5 | 1012.06 ± 1.5 | 1015.57 ± 1.5 | 1019.07 ± 1.5
298.15 K, x1 = 0.7471 | – | – | – | – | 1016.43 ± 1.5 | 1020.32 ± 1.5 | 1024.11 ± 1.5 | 1027.63 ± 1.5 | 1031.19 ± 1.5
298.15 K, x1 = 0.7989 | – | – | – | – | 1029.72 ± 1.5 | 1033.62 ± 1.5 | 1037.46 ± 1.5 | 1041.04 ± 1.5 | 1044.59 ± 1.5
298.15 K, x1 = 0.8491 | – | – | – | – | 1042.57 ± 1.5 | 1046.53 ± 1.5 | 1050.43 ± 1.5 | 1054.02 ± 1.6 | 1057.6 ± 1.6
298.15 K, x1 = 0.8993 | – | – | – | – | 1055.43 ± 1.6 | 1059.4 ± 1.6 | 1063.31 ± 1.6 | 1066.92 ± 1.6 | 1070.52 ± 1.6
298.15 K, x1 = 0.9249 | – | – | – | – | 1061.94 ± 1.6 | 1065.92 ± 1.6 | 1069.84 ± 1.6 | 1073.44 ± 1.6 | 1077.05 ± 1.6
298.15 K, x1 = 0.9489 | – | – | – | – | 1067.96 ± 1.6 | 1071.94 ± 1.6 | 1075.86 ± 1.6 | 1079.52 ± 1.6 | 1083.13 ± 1.6
298.15 K, x1 = 0.9743 | – | – | – | – | 1074.33 ± 1.6 | 1078.36 ± 1.6 | 1082.29 ± 1.6 | 1085.95 ± 1.6 | 1089.6 ± 1.6
298.15 K, x1 = 1 | – | – | – | – | 1080.9 ± 0.6 | 1084.89 ± 0.61 | 1088.82 ± 0.62 | 1092.44 ± 0.64 | 1096.04 ± 0.65
303.15 K, x1 = 0.0273 | 802.96 ± 1.4 | 806.96 ± 1.4 | 810.58 ± 1.4 | 814.19 ± 1.4 | 817.69 ± 1.4 | 821.09 ± 1.4 | 824.3 ± 1.4 | – | –
303.15 K, x1 = 0.0506 | 809.34 ± 1.4 | 813.38 ± 1.4 | 817.06 ± 1.4 | 820.71 ± 1.4 | 824.27 ± 1.4 | 827.72 ± 1.4 | 830.93 ± 1.4 | – | –
303.15 K, x1 = 0.0755 | 816.25 ± 1.4 | 820.3 ± 1.4 | 824.02 ± 1.4 | 827.68 ± 1.4 | 831.25 ± 1.4 | 834.74 ± 1.4 | 838.05 ± 1.4 | – | –
303.15 K, x1 = 0.1007 | 823.16 ± 1.4 | 827.26 ± 1.4 | 831 ± 1.4 | 834.7 ± 1.4 | 838.32 ± 1.4 | 841.82 ± 1.4 | 845.13 ± 1.4 | – | –
303.15 K, x1 = 0.1495 | 836.62 ± 1.4 | 840.77 ± 1.4 | 844.56 ± 1.4 | 848.32 ± 1.4 | 851.95 ± 1.4 | 855.5 ± 1.4 | 858.87 ± 1.4 | – | –
303.15 K, x1 = 0.2003 | 850.48 ± 1.4 | 854.68 ± 1.4 | 858.53 ± 1.4 | 862.39 ± 1.4 | 866.08 ± 1.4 | 869.69 ± 1.4 | 873.1 ± 1.4 | – | –
303.15 K, x1 = 0.2529 | 864.74 ± 1.4 | 869 ± 1.4 | 872.91 ± 1.4 | 876.81 ± 1.4 | 880.56 ± 1.4 | 884.23 ± 1.4 | 887.7 ± 1.4 | – | –
303.15 K, x1 = 0.2993 | 877.26 ± 1.4 | 881.57 ± 1.4 | 885.49 ± 1.4 | 889.45 ± 1.4 | 893.25 ± 1.4 | 896.97 ± 1.4 | 900.44 ± 1.4 | – | –
303.15 K, x1 = 0.3497 | 890.62 ± 1.4 | 894.99 ± 1.4 | 899.01 ± 1.4 | 903.02 ± 1.4 | 906.89 ± 1.4 | 910.67 ± 1.4 | 914.19 ± 1.4 | – | –
303.15 K, x1 = 0.401 | 904.1 ± 1.4 | 908.57 ± 1.4 | 912.65 ± 1.4 | 916.71 ± 1.4 | 920.64 ± 1.4 | 924.47 ± 1.4 | 928.04 ± 1.4 | – | –
303.15 K, x1 = 0.4509 | 917.2 ± 1.4 | 921.72 ± 1.4 | 925.81 ± 1.4 | 929.92 ± 1.4 | 933.91 ± 1.4 | 937.75 ± 1.5 | 941.37 ± 1.5 | – | –
303.15 K, x1 = 0.5002 | 930.06 ± 1.4 | 934.59 ± 1.4 | 938.74 ± 1.5 | 942.9 ± 1.5 | 946.9 ± 1.5 | 950.79 ± 1.5 | 954.47 ± 1.5 | – | –
303.15 K, x1 = 0.5498 | 942.89 ± 1.5 | 947.47 ± 1.5 | 951.68 ± 1.5 | 955.89 ± 1.5 | 959.95 ± 1.5 | 963.85 ± 1.5 | 967.53 ± 1.5 | – | –
303.15 K, x1 = 0.5996 | 955.69 ± 1.5 | 960.32 ± 1.5 | 964.59 ± 1.5 | 968.8 ± 1.5 | 972.92 ± 1.5 | 976.87 ± 1.5 | 980.61 ± 1.5 | – | –
303.15 K, x1 = 0.6499 | 968.54 ± 1.5 | 973.22 ± 1.5 | 977.56 ± 1.5 | 981.82 ± 1.5 | 985.95 ± 1.5 | 989.96 ± 1.5 | 993.75 ± 1.5 | – | –
303.15 K, x1 = 0.7006 | 981.46 ± 1.5 | 986.15 ± 1.5 | 990.49 ± 1.5 | 994.8 ± 1.5 | 998.94 ± 1.5 | 1003.01 ± 1.5 | 1006.8 ± 1.5 | – | –
303.15 K, x1 = 0.7471 | 993.16 ± 1.5 | 997.9 ± 1.5 | 1002.3 ± 1.5 | 1006.66 ± 1.5 | 1010.86 ± 1.5 | 1014.93 ± 1.5 | 1018.72 ± 1.5 | – | –
303.15 K, x1 = 0.7989 | 1006.2 ± 1.5 | 1010.99 ± 1.5 | 1015.45 ± 1.5 | 1019.82 ± 1.5 | 1024.03 ± 1.5 | 1028.15 ± 1.5 | 1032 ± 1.5 | – | –
303.15 K, x1 = 0.8491 | 1018.81 ± 1.5 | 1023.65 ± 1.5 | 1028.12 ± 1.5 | 1032.54 ± 1.5 | 1036.81 ± 1.5 | 1040.99 ± 1.5 | – | – | –
303.15 K, x1 = 0.8993 | 1031.43 ± 1.5 | 1036.28 ± 1.5 | 1040.81 ± 1.5 | 1045.23 ± 1.5 | 1049.51 ± 1.5 | 1053.69 ± 1.6 | – | – | –
303.15 K, x1 = 0.9249 | 1037.82 ± 1.5 | 1042.67 ± 1.5 | 1047.21 ± 1.5 | 1051.62 ± 1.5 | 1055.91 ± 1.6 | 1060.1 ± 1.6 | – | – | –
303.15 K, x1 = 0.9489 | 1043.76 ± 1.5 | 1048.62 ± 1.5 | 1053.16 ± 1.5 | 1057.63 ± 1.6 | 1061.92 ± 1.6 | 1066.11 ± 1.6 | – | – | –
303.15 K, x1 = 0.9743 | 1050.11 ± 1.5 | 1054.97 ± 1.6 | 1059.51 ± 1.6 | 1063.98 ± 1.6 | 1068.28 ± 1.6 | 1072.47 ± 1.6 | – | – | –
303.15 K, x1 = 1 | 1056.61 ± 0.56 | 1061.47 ± 0.57 | 1066.02 ± 0.57 | 1070.49 ± 0.58 | 1074.79 ± 0.59 | 1078.99 ± 0.6 | – | – | –
